We go through three compounds from ChEMBL document CHEMBL1148886, “Synthesis and antibacterial activity of 3-keto-6-O-carbamoyl-11,12-cyclic thiocarbamate erythromycin A derivatives” (2007).

In brackets after ≈: the same amount, converted by molar mass. Bounds are passed on as bounds.

What all share (assay type): functional
In assay [1] the test system is Streptococcus pneumoniae. The assay can be described thus: Antibacterial activity against erythromycin-susceptible Streptococcus pneumoniae OC9132 by broth microdilution method.
Assay [2] relates to Streptococcus pneumoniae. Kind of assay: Antibacterial activity against erythromycin-resistant Streptococcus pneumoniae OC4438 containing mef(A) by broth microdilution method.
For another assay, the system named is Haemophilus influenzae. Kind of assay: Antibacterial activity against Haemophilus influenzae OC4882 by broth microdilution method.
Assay [3] concerns Streptococcus pneumoniae. Kind of assay: Antibacterial activity against erythromycin-resistant Streptococcus pneumoniae OC4051 containing erm(B) by broth microdilution method.
The next assay deals with Staphylococcus aureus. The assay can be described thus: Antibacterial activity against erythromycin-susceptible Staphylococcus aureus OC4172 by broth microdilution method.

`CC[C@H]1OC(=O)[C@H](C)[C@@H](O[C@H]2C[C@@](C)(OC)[C@@H](O)[C@H](C)O2)[C@H](C)[C@@H](O[C@@H]2O[C@H](C)C[C@H](N(C)C)[C@H]2O)[C@](C)(O)C[C@@H](C)C(=O)[C@H](C)[C@@H](O)[C@]1(C)O` [ERYTHROMYCIN]: the MIC is 0.06 µg/mL (≈ 0.0818 µM) in the assay on Streptococcus pneumoniae [1]; 4 µg/mL (≈ 5.45 µM) against Streptococcus pneumoniae [2]; 8 µg/mL (≈ 10.9 µM) against Haemophilus influenzae; greater than 16 µg/mL in the assay with Streptococcus pneumoniae [3]; 0.5 µg/mL (≈ 0.681 µM) against Staphylococcus aureus.

Take `CC[C@H]1OC(=O)[C@H](C)C(=O)[C@H](C)[C@@H](O[C@@H]2O[C@H](C)C[C@H](N(C)C)[C@H]2O)[C@](C)(OC)C[C@@H](C)C(=O)[C@H](C)[C@H]2N(CCCCn3cnc(-c4cccnc4)c3)C(=O)O[C@]12C` [TELITHROMYCIN]: the MIC in the assay on Streptococcus pneumoniae [1] worked out at 0.03 µg/mL (≈ 0.0369 µM); against Streptococcus pneumoniae [2], 0.25 µg/mL (≈ 0.308 µM); with Haemophilus influenzae, 2 µg/mL (≈ 2.46 µM); with Streptococcus pneumoniae [3], 0.06 µg/mL (≈ 0.0739 µM); against Staphylococcus aureus it was 0.25 µg/mL (≈ 0.308 µM).

Turning to `CC[C@H]1OC(=O)[C@H](C)C(=O)[C@H](C)[C@@H](O[C@@H]2O[C@H](C)C[C@H](N(C)C)[C@H]2O)[C@](C)(OC(N)=O)C[C@@H](C)C(=O)[C@H](C)[C@@H]2NC(=S)O[C@]12C`, the MIC in the assay with Streptococcus pneumoniae [1] is 0.25 µg/mL (≈ 0.38 µM); with Haemophilus influenzae, 8 µg/mL (≈ 12.2 µM); against Staphylococcus aureus, 4 µg/mL (≈ 6.08 µM).
